Source: patent US20240109917A1 (ACTELION PHARMACEUTICALS LTD, priority 2020, published 2024)

Target: VEGFR2, unphosphorylated (Homo sapiens (Human), UniProt P35968)
Experiment: VEGFR ADP GLO Assay
Assay type: biochemical

Chain of VEGFR2, unphosphorylated (P35968 20-1356): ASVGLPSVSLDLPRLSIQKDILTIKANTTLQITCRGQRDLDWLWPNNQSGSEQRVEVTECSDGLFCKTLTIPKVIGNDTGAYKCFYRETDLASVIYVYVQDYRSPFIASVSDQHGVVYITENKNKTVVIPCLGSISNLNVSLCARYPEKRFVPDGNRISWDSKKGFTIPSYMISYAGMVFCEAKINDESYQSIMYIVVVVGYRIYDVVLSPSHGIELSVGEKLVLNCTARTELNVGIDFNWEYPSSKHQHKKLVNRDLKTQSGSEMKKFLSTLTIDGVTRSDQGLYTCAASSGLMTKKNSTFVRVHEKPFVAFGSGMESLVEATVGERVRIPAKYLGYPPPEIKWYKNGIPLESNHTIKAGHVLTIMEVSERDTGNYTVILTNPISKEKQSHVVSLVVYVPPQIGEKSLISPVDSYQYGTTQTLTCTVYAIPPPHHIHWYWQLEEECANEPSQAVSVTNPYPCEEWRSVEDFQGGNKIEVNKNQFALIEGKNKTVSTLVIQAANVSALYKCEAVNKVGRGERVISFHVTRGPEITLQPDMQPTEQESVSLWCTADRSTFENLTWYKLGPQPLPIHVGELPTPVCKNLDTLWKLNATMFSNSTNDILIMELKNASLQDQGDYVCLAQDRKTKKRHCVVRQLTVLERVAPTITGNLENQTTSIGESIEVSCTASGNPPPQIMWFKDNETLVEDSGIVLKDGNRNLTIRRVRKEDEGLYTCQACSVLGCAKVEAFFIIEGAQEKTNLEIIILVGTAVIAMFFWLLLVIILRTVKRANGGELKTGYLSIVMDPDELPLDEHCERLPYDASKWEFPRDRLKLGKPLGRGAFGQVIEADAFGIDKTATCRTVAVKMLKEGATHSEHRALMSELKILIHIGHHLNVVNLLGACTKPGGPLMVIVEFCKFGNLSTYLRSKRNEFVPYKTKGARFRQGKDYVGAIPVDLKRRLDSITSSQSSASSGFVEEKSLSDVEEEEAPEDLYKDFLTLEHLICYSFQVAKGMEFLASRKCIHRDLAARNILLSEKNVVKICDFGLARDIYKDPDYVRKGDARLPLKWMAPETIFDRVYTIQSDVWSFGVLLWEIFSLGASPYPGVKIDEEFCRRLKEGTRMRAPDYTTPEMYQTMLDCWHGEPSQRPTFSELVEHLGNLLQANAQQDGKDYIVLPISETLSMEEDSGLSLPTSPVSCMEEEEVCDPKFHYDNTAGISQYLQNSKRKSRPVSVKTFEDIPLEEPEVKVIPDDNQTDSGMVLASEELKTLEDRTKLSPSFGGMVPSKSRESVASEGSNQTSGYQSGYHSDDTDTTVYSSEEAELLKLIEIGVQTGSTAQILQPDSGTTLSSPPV

| SMILES | IC50 |
| --- | --- |
| COCCn1cc(-c2cn3ncc(C(=O)Nc4cc(NC(=O)CN5CCCC5(C)C)cnc4C)c3s2)cn1 [Example 329, N-(5-(2-(2,2-dimethylpyrrolidin-1-yl)acetamido)-2-methylpyridin-3-yl)-2-(1-(2-methoxyethyl)-1H-pyrazol-4-yl)pyrazolo[5,1-b]thiazole-7-carboxamide] | > 7.5 µM |
| Cc1ncc(NC(=O)CN2CC(C)(C)C2)cc1NC(=O)c1cnn2cc(-c3ccnc(N4CCOCC4)c3)sc12 [Example 284, N-(5-(2-(3,3-dimethylazetidin-1-yl)acetamido)-2-methylpyridin-3-yl)-2-(2-morpholinopyridin-4-yl)pyrazolo[5,1-b]thiazole-7-carboxamide] | > 7.5 µM |
| Cc1ncc(NC(=O)CN2CC(C)(C)C2)cc1NC(=O)c1cnn2cc(-c3cn[nH]c3)sc12 [Example 271, N-(5-(2-(3,3-dimethylazetidin-1-yl)acetamido)-2-methylpyridin-3-yl)-2-(1H-pyrazol-4-yl)pyrazolo[5,1-b]thiazole-7-carboxamide] | 5.93 µM |
| Cc1ncc(NC(=O)CN2CC(C)(C)C2)cc1NC(=O)c1cnn2cc(-c3ccc(CO)s3)sc12 [Example 278, N-(5-(2-(3,3-dimethylazetidin-1-yl)acetamido)-2-methylpyridin-3-yl)-2-(5-(hydroxymethyl)thiophen-2-yl)pyrazolo[5,1-b]thiazole-7-carboxamide] | > 7.5 µM |
| CC(=O)Nc1cc(-c2cn3ncc(C(=O)Nc4cc(NC(=O)CN5CC(C)(C)C5)cnc4C)c3s2)ccn1 [Example 273, 2-(2-acetamidopyridin-4-yl)-N-(5-(2-(3,3-dimethylazetidin-1-yl)acetamido)-2-methylpyridin-3-yl)pyrazolo[5,1-b]thiazole-7-carboxamide] | > 7.5 µM |
| Cc1ncc(NC(=O)CN2CC(C)(C)C2)cc1NC(=O)c1cnn2cc(-c3cnn(-c4cccnc4)c3)sc12 [Example 289, N-(5-(2-(3,3-dimethylazetidin-1-yl)acetamido)-2-methylpyridin-3-yl)-2-(1-(pyridin-3-yl)-1H-pyrazol-4-yl)pyrazolo[5,1-b]thiazole-7-carboxamide] | > 7.5 µM |
| COc1ncccc1-c1cn2ncc(C(=O)Nc3cc(NC(=O)[C@@H]4C[C@H](C)CN4C)cnc3C)c2s1 [Example 317, N-(5-((2S,4S)-1,4-dimethylpyrrolidine-2-carboxamido)-2-methylpyridin-3-yl)-2-(2-methoxypyridin-3-yl)pyrazolo[5,1-b]thiazole-7-carboxamide] | > 7.5 µM |
| Cc1ncc(NC(=O)CN2CC(C)(C)C2)cc1NC(=O)c1cnn2cc(-c3ccoc3)sc12 [Example 283, N-(5-(2-(3,3-dimethylazetidin-1-yl)acetamido)-2-methylpyridin-3-yl)-2-(furan-3-yl)pyrazolo[5,1-b]thiazole-7-carboxamide] | > 7.5 µM |
| COCCn1cc(-c2cn3ncc(C(=O)Nc4cc(NC(=O)CN5CC(C)(C)C5)cnc4C)c3s2)cn1 [Example 261, N-(5-(2-(3,3-dimethylazetidin-1-yl)acetamido)-2-methylpyridin-3-yl)-2-(1-(2-methoxyethyl)-1H-pyrazol-4-yl)pyrazolo[5,1-b]thiazole-7-carboxamide] | > 7.5 µM |
| Cc1ncc(NC(=O)CN2CC(C)(C)C2)cc1NC(=O)c1cnn2cc(-c3cnn(C(F)(F)F)c3)sc12 [Example 269, N-(5-(2-(3,3-dimethylazetidin-1-yl)acetamido)-2-methylpyridin-3-yl)-2-(1-(trifluoromethyl)-1H-pyrazol-4-yl)pyrazolo[5,1-b]thiazole-7-carboxamide] | > 7.5 µM |
| COc1ncccc1-c1cn2ncc(C(=O)Nc3cc(NC(=O)C[C@@H]4CCCN4C(C)C)cnc3C)c2s1 [Example 323, (S)—N-(5-(2-(1-isopropylpyrrolidin-2-yl)acetamido)-2-methylpyridin-3-yl)-2-(2-methoxypyridin-3-yl)pyrazolo[5,1-b]thiazole-7-carboxamide] | > 7.5 µM |
| Cc1ncc(NC(=O)CN(C)C2CCOCC2)cc1NC(=O)c1cnn2cc(-c3cnn(CS(C)(=O)=O)c3)sc12 [Example 298, N-(2-methyl-5-(2-(methyl(tetrahydro-2H-pyran-4-yl)amino)acetamido)pyridin-3-yl)-2-(1-((methylsulfonyl)methyl)-1H-pyrazol-4-yl)pyrazolo[5,1-b]thiazole-7-carboxamide] | > 7.5 µM |
| Cc1ncc(NC(=O)CN2CC(C)(C)C2)cc1NC(=O)c1cnn2cc(-c3cnn(C4CCS(=O)(=O)CC4)c3)sc12 [Example 280, N-(5-(2-(3,3-dimethylazetidin-1-yl)acetamido)-2-methylpyridin-3-yl)-2-(1-(1,1-dioxidotetrahydro-2H-thiopyran-4-yl)-1H-pyrazol-4-yl)pyrazolo[5,1-b]thiazole-7-carboxamide] | > 7.5 µM |
| COc1ncccc1-c1cn2ncc(C(=O)Nc3cc(NC(=O)CN4CCOC(C)(C)C4)cnc3C)c2s1 [Example 319, N-(5-(2-(2,2-dimethylmorpholino)acetamido)-2-methylpyridin-3-yl)-2-(2-methoxypyridin-3-yl)pyrazolo[5,1-b]thiazole-7-carboxamide] | > 7.5 µM |
| Cc1ncc(NC(=O)[C@@H]2C[C@@H](C)CN2C)cc1NC(=O)c1cnn2cc(-c3cnn(C)c3)sc12 [Example 304, N-(5-((2S,4R)-1,4-dimethylpyrrolidine-2-carboxamido)-2-methylpyridin-3-yl)-2-(1-methyl-1H-pyrazol-4-yl)pyrazolo[5,1-b]thiazole-7-carboxamide] | > 7.5 µM |
| CNC(=O)c1cc(-c2cn3ncc(C(=O)Nc4cc(NC(=O)CN5CC(C)(C)C5)cnc4C)c3s2)ccn1 [Example 274, N-(5-(2-(3,3-dimethylazetidin-1-yl)acetamido)-2-methylpyridin-3-yl)-2-(2-(methylcarbamoyl)pyridin-4-yl)pyrazolo[5,1-b]thiazole-7-carboxamide] | > 7.5 µM |
| Cc1ncc(NC(=O)CN(C)C2CCOCC2)cc1NC(=O)c1cnn2cc(-c3cnn(C4CCC4)c3)sc12 [Example 296, 2-(1-cyclobutyl-1H-pyrazol-4-yl)-N-(2-methyl-5-(2-(methyl(tetrahydro-2H-pyran-4-yl)amino)acetamido)pyridin-3-yl)pyrazolo[5,1-b]thiazole-7-carboxamide] | > 7.5 µM |
| Cc1ncc(NC(=O)CN2CC(C)(C)C2)cc1NC(=O)c1cnn2cc(-c3cnn(C4CS(=O)(=O)C4)c3)sc12 [Example 262, N-(5-(2-(3,3-dimethylazetidin-1-yl)acetamido)-2-methylpyridin-3-yl)-2-(1-(1,1-dioxidothietan-3-yl)-1H-pyrazol-4-yl)pyrazolo[5,1-b]thiazole-7-carboxamide] | > 7.5 µM |
| COc1ncccc1-c1cn2ncc(C(=O)Nc3cc(NC(=O)CN4CCCC5(CC5)C4)cnc3C)c2s1 [Example 321, N-(5-(2-(5-azaspiro[2.5]octan-5-yl)acetamido)-2-methylpyridin-3-yl)-2-(2-methoxypyridin-3-yl)pyrazolo[5,1-b]thiazole-7-carboxamide] | > 7.5 µM |
| CC[C@H]1CN(CC(=O)Nc2cnc(C)c(NC(=O)c3cnn4cc(-c5cccnc5OC)sc34)c2)CCO1 [Example 311, (S)—N-(5-(2-(2-ethylmorpholino)acetamido)-2-methylpyridin-3-yl)-2-(2-methoxypyridin-3-yl)pyrazolo[5,1-b]thiazole-7-carboxamide] | > 7.5 µM |
